In patent publication USRE40086E1, “Method for treating bacterial infection with novel 7-substituted-9-substituted amino 6-demethyl-6-deoxytetracyclines” (Wyeth Holdings Corporation, priority 1991, dated 2008):

Tests used:
[1] = test system: S. aureus UBMS 88-5 (tetM); assay: MIC, agar dilution; format: cell-based; details: S. aureus UBMS 88-5 TetM; Table IA; unit assumed
[2] = test system: S. aureus UBMS 88-4 (Sensitive); assay: MIC, agar dilution; format: cell-based; details: S. aureus UBMS 88-4; Table IA; unit assumed
[3] = test system: S. aureus UBMS 90-1 (tetM); assay: MIC, agar dilution; format: cell-based; details: S. aureus UBMS 90-1 TetM; Table IA; unit assumed
[4] = test system: S. aureus UBMS 90-2 (tetM); assay: MIC, agar dilution; format: cell-based; details: S. aureus UBMS 90-2 TetM; Table IA; unit assumed
[5] = test system: S. aureus UBMS 90-3 (Sensitive); assay: MIC, agar dilution; format: cell-based; details: S. aureus UBMS 90-3; Table IA; unit assumed
[6] = test system: S. aureus UBMS 88-7 (tetK); assay: MIC, agar dilution; format: cell-based; details: S. aureus UBMS 88-7 TetK; Table IA; unit assumed
[7] = test system: S. aureus IVES 2943 (meth. resistant); assay: MIC, agar dilution; format: cell-based; details: S. aureus IVES 2943; Table IA; unit assumed
[8] = test system: S. aureus IVES 1983 (meth. resistant); assay: MIC, agar dilution; format: cell-based; details: S. aureus IVES 1983; Table IA; unit assumed
[9] = test system: S. aureus ATCC 29213 (Sensitive); assay: MIC, agar dilution; format: cell-based; details: S. aureus ATCC 29213; Table IA; unit assumed
[10] = test system: S. aureus Smith (Sensitive); assay: MIC, agar dilution; format: cell-based; details: S. aureus SMITH (MP); Table IA; unit assumed
[11] = test system: S. haemolyticus AVAH 88-3; assay: MIC, agar dilution; format: cell-based; details: S. hemolyticus AVHAH 88-3; Table IA; unit assumed
E. faecalis 12201 = assay: MIC, agar dilution; format: cell-based; details: Enterococcus 12201; Table IA; unit assumed
E. faecalis ATCC 29212 = assay: MIC, agar dilution; format: cell-based; details: E. faecalis ATCC 29212; Table IA; unit assumed
E. coli UBMS 88-1 (tetB) = assay: MIC, agar dilution; format: cell-based; details: E. coli UBMS 88-1 TetB; Table IA; unit assumed
E. coli UBMS 89-1 (tetM) = assay: MIC, agar dilution; format: cell-based; details: E. coli UBMS 89-1 TetM; Table IA; unit assumed
[12] = test system: E. coli UBMS 89-2 (Sensitive); assay: MIC, agar dilution; format: cell-based; details: E. coli UBMS 89-2 Tet Sens.; Table IA; unit assumed
E. coli ATCC 25922 = assay: MIC, agar dilution; format: cell-based; details: E. coli ATCC 25922; Table IA; unit assumed
E. coli UBMS 90-4 (tetM) = assay: MIC, agar dilution; format: cell-based; details: E. coli UBMS 90-4 TetM; Table IA; unit assumed
S. aureus SMITH (sens) [13] = assay: In vivo antibacterial evaluation, acute lethal infection in mice
Text: In Vivo Antibacterial Evaluation (Table VII)

E. coli J3272 Tet sens. = assay: MIC, agar dilution (Table IA); format: cell-based; details: unit assumed
E. coli MC4100 TetB = assay: MIC, agar dilution (Table IA); format: cell-based; details: unit assumed
E. coli PRP1 TetA = assay: MIC, agar dilution (Table IA); format: cell-based; details: unit assumed
E. coli J3272 TetC = assay: MIC, agar dilution (Table IA); format: cell-based; details: unit assumed
E. coli J2175 = assay: MIC, agar dilution (Table IA); format: cell-based; details: unit assumed
E. coli BAJ9003 = assay: MIC, agar dilution (Table IA); format: cell-based; details: unit assumed
E. coli UBMS 90-5 = assay: MIC, agar dilution (Table IA); format: cell-based; details: unit assumed
E. coli #311 (MP) = assay: MIC, agar dilution (Table IA); format: cell-based; details: unit assumed
E. coli J3272 TetD = assay: MIC, agar dilution (Table IA); format: cell-based; details: unit assumed
S. mariescens FDOR 8733 = assay: MIC, agar dilution (Table IA); format: cell-based; details: unit assumed
[14] = test system: X. maltophilia NEMC 87210; assay: MIC, agar dilution (Table IA); format: cell-based; details: unit assumed
[15] = test system: Ps. acruginosa ATCC 27853; assay: MIC, agar dilution (Table IA); format: cell-based; details: unit assumed
S. aureus NEMC 8769/89-4 = assay: MIC, agar dilution (Table IA); format: cell-based; details: unit assumed
S. aureus ROSE (MP) = assay: MIC, agar dilution (Table IA); format: cell-based; details: unit assumed
S. aureus SMITH (sens) [16] = assay: In vivo antibacterial evaluation, acute lethal infection in mice; details: Intraveneous

| SMILES | Antibacterial activity (MIC) [1] [µg/mL] | Antibacterial activity (MIC) [2] [µg/mL] | Antibacterial activity (MIC) [3] [µg/mL] | Antibacterial activity (MIC) [4] [µg/mL] | Antibacterial activity (MIC) [5] [µg/mL] | Antibacterial activity (MIC) [6] [µg/mL] | Antibacterial activity (MIC) [7] [µg/mL] | Antibacterial activity (MIC) [8] [µg/mL] | Antibacterial activity (MIC) [9] [µg/mL] | Antibacterial activity (MIC) [10] [µg/mL] | Antibacterial activity (MIC) [11] [µg/mL] | Antibacterial activity (MIC) (E. faecalis 12201) [µg/mL] | Antibacterial activity (MIC) (E. faecalis ATCC 29212) [µg/mL] | Antibacterial activity (MIC) (E. coli UBMS 88-1 (tetB)) [µg/mL] | Antibacterial activity (MIC) (E. coli UBMS 89-1 (tetM)) [µg/mL] | Antibacterial activity (MIC) [12] [µg/mL] | Antibacterial activity (MIC) (E. coli ATCC 25922) [µg/mL] | Antibacterial activity (MIC) (E. coli UBMS 90-4 (tetM)) [µg/mL] | ED50 (S. aureus SMITH (sens) [13]; Oral) [mg/kg] | Antibacterial activity (MIC) (E. coli J3272 Tet sens.) [µg/mL] | also measured |
| --- | --- | --- | --- | --- | --- | --- | --- | --- | --- | --- | --- | --- | --- | --- | --- | --- | --- | --- | --- | --- | --- |
| CN(C)CC(=O)Nc1cc(N(C)C)c2c(c1O)C(=O)C1=C(O)C3(O)C(=O)C(C(N)=O)=C(O)C(N(C)C)C3CC1C2.O=S(=O)(O)O.O=S(=O)(O)O (stereo not drawn) [JJ, [4S-(4alpha,12aalpha))-4,7-Bis(dimethylamino)-9-([(dimethylamino)acetyl)amino]-1,4,4a,5,5a,6,11,12a-octahydro-3,10,12,12a-tetrahydroxy-1,11-dioxo-2-naphthacenecarboxamide disulfate] | 0.25 | 0.25 | 0.25 | 0.25 | 0.12 | 1 | 2 | 2 | 0.03 | 0.12 | 0.25 | 0.12 | 0.12 | 0.25 | 0.25 | 0.25 | 0.25 | 0.25 | 9.6 | 0.25 | ED50 (S. aureus SMITH (sens) [13]; Subcutaneous): 0.66 mg/kg; Antibacterial activity (MIC) (E. coli MC4100 TetB): 0.25 µg/mL; Antibacterial activity (MIC) (E. coli PRP1 TetA): 2 µg/mL; Antibacterial activity (MIC) (E. coli J3272 TetC): 1 µg/mL; Antibacterial activity (MIC) (E. coli J2175): 0.25 µg/mL; Antibacterial activity (MIC) (E. coli BAJ9003): 0.03 µg/mL; Antibacterial activity (MIC) (E. coli UBMS 90-5): 0.25 µg/mL; Antibacterial activity (MIC) (E. coli #311 (MP)): 0.25 µg/mL; Antibacterial activity (MIC) (E. coli J3272 TetD): 0.12 µg/mL; Antibacterial activity (MIC) (S. mariescens FDOR 8733): 4 µg/mL; Antibacterial activity (MIC) [14]: 0.5 µg/mL; Antibacterial activity (MIC) [15]: 8 µg/mL; Antibacterial activity (MIC) (S. aureus NEMC 8769/89-4): 0.06 µg/mL; Antibacterial activity (MIC) (S. aureus ROSE (MP)): 2 µg/mL; ED50 (S. aureus SMITH (sens) [16]): 0.61 mg/kg |
| CCCCNCC(=O)Nc1cc(N(C)C)c2c(c1O)C(=O)C1=C(O)C3(O)C(=O)C(C(N)=O)=C(O)C(N(C)C)C3CC1C2.Cl.Cl (stereo not drawn) [PP, [4S-(4alpha,12aalpha)]-4,7-Bis(dimethylamino)-9-[[(butylamino)acetyl]amino)-1,4,4a,5,5a,6,11,12a-octahydro-3,10,12,12a-tetrahydroxy-1,11-dioxo-2-naphthacenecarboxamide dihydrochloride] | 0.5 | 0.25 | 0.5 | 0.5 | 0.25 | 2 | 2 | 2 | 0.25 | 0.12 | 0.25 | 0.12 | 0.12 | 0.5 | 0.25 | 0.5 | 0.25 | 0.25 | >16 | 0.5 | Antibacterial activity (MIC) (E. coli MC4100 TetB): 0.5 µg/mL; Antibacterial activity (MIC) (E. coli PRP1 TetA): 1 µg/mL; Antibacterial activity (MIC) (E. coli J3272 TetC): 0.5 µg/mL; Antibacterial activity (MIC) (E. coli J2175): 0.25 µg/mL; Antibacterial activity (MIC) (E. coli BAJ9003): 0.12 µg/mL; Antibacterial activity (MIC) (E. coli UBMS 90-5): 0.5 µg/mL; Antibacterial activity (MIC) (E. coli #311 (MP)): 0.25 µg/mL; Antibacterial activity (MIC) (E. coli J3272 TetD): 0.25 µg/mL; Antibacterial activity (MIC) (S. mariescens FDOR 8733): 2 µg/mL; Antibacterial activity (MIC) [14]: 0.5 µg/mL; Antibacterial activity (MIC) [15]: 16 µg/mL; Antibacterial activity (MIC) (S. aureus NEMC 8769/89-4): 0.12 µg/mL; Antibacterial activity (MIC) (S. aureus ROSE (MP)): 2 µg/mL; ED50 (S. aureus SMITH (sens) [16]): 1 to 2 mg/kg |
| CC(C)CNCC(=O)Nc1cc(N(C)C)c2c(c1O)C(=O)C1=C(O)C3(O)C(=O)C(C(N)=O)=C(O)C(N(C)C)C3CC1C2.Cl.Cl (stereo not drawn) [TT, [4S-(4alpha,12aalpha)]-4,7-Bis(dimethylamino)-1,4,4a,5,5a,6,11,12a-octahydro-3,10,12,12a-tetrahydroxy-9-[[[(2-methylpropyl)amino]acetyl]amino)-1,11-dioxo-2-naphthacenecarboxamide dihydrochloride] | 0.25 | 0.25 | 0.25 | 0.25 | 0.12 | 2 | 2 | 2 | 0.25 | 0.12 | 0.5 | 0.25 | 0.25 | 0.5 | 0.25 | 0.5 | 0.5 | 0.5 | 8 to 16 | 0.5 | Antibacterial activity (MIC) (E. coli MC4100 TetB): 0.5 µg/mL; Antibacterial activity (MIC) (E. coli PRP1 TetA): 2 µg/mL; Antibacterial activity (MIC) (E. coli J3272 TetC): 0.5 µg/mL; Antibacterial activity (MIC) (E. coli J2175): 0.5 µg/mL; Antibacterial activity (MIC) (E. coli BAJ9003): 0.06 µg/mL; Antibacterial activity (MIC) (E. coli UBMS 90-5): 0.5 µg/mL; Antibacterial activity (MIC) (E. coli #311 (MP)): 0.5 µg/mL; Antibacterial activity (MIC) (E. coli J3272 TetD): 0.12 µg/mL; Antibacterial activity (MIC) (S. mariescens FDOR 8733): 4 µg/mL; Antibacterial activity (MIC) [14]: 0.5 µg/mL; Antibacterial activity (MIC) [15]: 16 µg/mL; Antibacterial activity (MIC) (S. aureus NEMC 8769/89-4): 0.03 µg/mL; Antibacterial activity (MIC) (S. aureus ROSE (MP)): 2 µg/mL; ED50 (S. aureus SMITH (sens) [16]): 1 to 2 mg/kg |
| CNC(C)C(=O)Nc1cc(N(C)C)c2c(c1O)C(=O)C1=C(O)[C@]3(O)C(=O)C(C(N)=O)=C(O)[C@@H](N(C)C)C3CC1C2.Cl.Cl (stereo partly drawn) [YY, [4S-(4alpha,12aalpha))-4,7-Bis(dimethylamino)-1,4,4a,5,5a,6,11,12a-octahydro-3,10,12,12a-tetrahydroxy-9-[[2-(methylamino)-1-oxopropyl]amino]-1,11-dioxo-2-naphthacenecarboxamide dihydrochloride] | 0.5 | 0.5 | 0.25 | 0.25 | 0.12 | 4 | 8 | 4 | 0.5 | 0.25 | 0.5 | 0.25 | 0.12 | 0.5 | 0.5 | 0.5 | 0.5 | 0.5 | >16 | 0.5 | Antibacterial activity (MIC) (E. coli MC4100 TetB): 0.5 µg/mL; Antibacterial activity (MIC) (E. coli PRP1 TetA): 2 µg/mL; Antibacterial activity (MIC) (E. coli J3272 TetC): 1 µg/mL; Antibacterial activity (MIC) (E. coli J2175): 0.5 µg/mL; Antibacterial activity (MIC) (E. coli BAJ9003): 0.06 µg/mL; Antibacterial activity (MIC) (E. coli UBMS 90-5): 0.5 µg/mL; Antibacterial activity (MIC) (E. coli #311 (MP)): 0.5 µg/mL; Antibacterial activity (MIC) (E. coli J3272 TetD): 0.25 µg/mL; Antibacterial activity (MIC) (S. mariescens FDOR 8733): 8 µg/mL; Antibacterial activity (MIC) [14]: 4 µg/mL; Antibacterial activity (MIC) [15]: 16 µg/mL; Antibacterial activity (MIC) (S. aureus NEMC 8769/89-4): 0.12 µg/mL; Antibacterial activity (MIC) (S. aureus ROSE (MP)): 8 µg/mL; ED50 (S. aureus SMITH (sens) [16]): 0.5 to 1 mg/kg |
